Test [1] deals with human iPS cells. The test can be described thus: Cell adhesiveness evaluation 2 (synthetic peptides added to cells seeded on natural vitronectin). In kind it is cell-based. Conditions: for adhesion of cells to the natural vitronectin on addition of peptide: 100 μM synthetic polypeptide; for Cell adhesion rate (%): 100 μM synthetic polypeptide in cell suspension, natural vitronectin surface 130 pmol/cm^2, 24 hours, no peptide = 100%, n=3. As for the experimental part:
The polypeptides shown in Table 8 were synthesized by an Fmoc solid-phase synthesis method. A surface onto which natural vitronectin was adsorbed at a concentration of 130 pmol/cm^2 was prepared, and then a cell suspension to which 100 μM of the aforementioned synthetic polypeptides were added was seeded into wells at a ratio of 30,000 cells/well. The number of adhesive cells 24 hours after seeding was calculated in the same manner as in <Cell adhesiveness evaluation 1>, and the results are shown in Table 8. In Table 8, the cell adhesion rate is expressed as a ratio calculated by regarding the cell adhesion rate obtained by using a culture solution not containing the synthetic polypeptides as being 100%. n=3.

The subject of test [2] is human iPS cells ("Tic"). Briefly: Cell adhesiveness evaluation 1 (ALP activity of adhesive iPS cells). In kind it is cell-based. To be noted: 30,000 cells/well, 24 hours, natural vitronectin (sample 15) = 100%. Here is the method:
The cell adhesiveness of human iPS cells (“Tic”: Cell No. JCRB 1331: from National Institute of Biomedical Innovation. [567-0085, 7-6-8 Asagi Saito Ibaraki-City Osaka]) with respect to the aforementioned polypeptides was evaluated in the following manner.
As feeder cells for retaining the human iPS cells, EmbryoMax (registered trademark) (early mouse embryonic fibroblasts: resistant to hygromycin, treated with mitomycin C, derived from C57/BL6, third passage) (Millipore Corporation) was used. By using DMEM (Invitrogen) and a 10% (v/v) fetal bovine serum medium, the feeder cells were cultured for 24 hours and attached to a T25 flask (Corning Incorporated). As a medium for the human iPS cells, the one obtained by adding FGF-2 (Sigma-Aldrich Co, LLC.) to a medium composed as shown in Table 6 at a final concentration of 10 ng/ml was used.
By using the aforementioned medium, the human iPS cells were retained and cultured in a 5% (v/v, the same unit will be used hereinafter) CO2 incubator at 37° C. Except for the day after the seeding of the iPS cells, the medium was replaced every day. The subculture operation was performed by exfoliating the cells by using Dispase II (neutral protease Grade II, Roche) and separating the cells in an appropriate size by a pipetting operation.
The iPS cells cultured as described above were treated with TrypLE Select (Invitrogen) for 5 minutes at 37° C. and separated into a single cell. After being subjected to centrifugation for 2 minutes at 300 rpm, the cells were collected and suspended in TeSR2 (a medium not containing a heterogeneous animal-derived component and a serum component, STEMCELL Technologies.) containing Y-27362 ((R)-(+)-trans-N-(4-pyridyl)-4-(1-aminoethyl)-cyclohexane carboxamide.2HCl.H2O, an Rho binding kinase inhibitor, Wako Pure Chemical Industries, Ltd.) at a final concentration of 10 μM.
Each of RCP-1 to RCP-11, RCP-21, RCP-25, and RCP-26 as control, human vitronectin (extracted from human serum, BD Biosciences), and recombinant laminin (rLaminin-5: Oriental Yeast Co., ltd. and Human Recombinant Laminin-511: BIOLAMINA AB) was added to and suspended in a predetermined buffer (a dialysis buffer used in <GRAVY value and aggregation characteristics> described above for RCP-1 to RCP-11, and PBS for RCP-21, RCP-25, human vitronectin, and recombinant laminin) at the concentration shown in Table 7, thereby preparing samples 1 to 17. The samples were added to the respective wells of a 96-well plate and adsorbed onto the plate by being held for 2 hours at 37° C.
Into the respective wells of the 96-well plate treated with the peptides, iPS cells were seeded at a cell density of 30,000 cells/well. After the cells were cultured for 24 hours, the nonadhesive cells were washed off with PBS, and only the adhesive cells were immobilized by using 4% (v/v) paraformaldehyde (Wako Pure Chemical Industries, Ltd.). By using an Attophos (registered trademark) AP Fluorescent Substrate System (Promega Corporation), the ALP activity was calculated, and from the calibration curve, the number of undifferentiated iPS cells having the ALP activity was calculated. In Table 7, the cell adhesion rate is expressed as a ratio calculated by regarding the cell adhesion rate obtained from the sample 15 using natural vitronectin as being 100%. n=3.

Test [3] concerns iPS cells. The test can be described thus: Cell growth property evaluation 2 (2-mercaptoethanol concentration in Essential 8). In kind it is cell-based, human. To be noted: for Cell growth rate: laminin 20 μg/ml, 72 hours. As for the experimental part:
A cell culture surface coated with RCP-11 was prepared in the same manner as in <Cell growth property evaluation 1> of Example 1. iPS cells collected in the same manner as in <Cell growth property evaluation 1> were suspended in the respective media composed as shown in Table 12 and seeded into wells at a cell density of 10,000 cells/well. After the cells were cultured for 72 hours, the number of cells were quantified in the same manner as in <Cell growth property evaluation 1>, and the cell growth properties were evaluated based on a cell growth rate which is a ratio calculated by regarding the number of cells cultured using RPC-11 as being 100%.

The subject of test [4] is human iPS cells ("Tic"). Briefly: Cell growth property evaluation 1 (different media). In kind it is cell-based. Conditions: for Cell growth rate: laminin 20 μg/ml, 72 hours, RCP-11 with Essential 8 = 100%, n=3. As for the experimental part:
Furthermore, for evaluation, human iPS cells (“Tic”) that were retention-cultured as described in <Cell adhesiveness evaluation 1> of reference example were treated with TrypLE Select (Invitrogen) for 5 minutes at 37° C. and separated into a single cell. After being subjected to centrifugation for 2 minutes at 300 rpm, the cells were collected, suspended in each medium, and used for the evaluation in each example. Herein, Y-27362 ((R)-(+)-trans-N-(4-pyridyl)-4-(1-aminoethyl)-cyclohexane carboxamide.2HCl.H2O, an Rho binding kinase inhibitor, Wako Pure Chemical Industries, Ltd.) was added to all of the media at a final concentration of 10 μM.
Each of RCP-11, RCP-5, and recombinant laminin (Human Recombinant Laminin-511: BIOLAMINA AB) as control was added to and suspended in a predetermined buffer (a dialysis buffer used in <GRAVY value and aggregation characteristics> of reference examples for RCP-11 and RCP-5, and PBS for the recombinant laminin) at the final concentration shown in Table 11, thereby preparing polypeptide solutions. The polypeptide solutions were added to the respective wells of a plasma-treated 96-well plate made of polystyrene (BD Falcon) having a plasma-treated cell culture surface and held as they were so as to be adsorbed onto the plate for 2 hours at 37° C. In this way, a peptide-treated 96-well plate having a polypeptide-coated surface was obtained. The iPS cells suspended in the respective media shown in Table 11 were seeded into the respective wells of the obtained peptide-treated 96-well plate at a cell density of 10,000 cells/well. After the cells were cultured for 72 hours, nonadhesive cells were washed off with PBS, and only adhesive cells were immobilized using 4% by mass of paraformaldehyde (Wako Pure Chemical Industries, Ltd.). By using an Attophos (registered trademark) AP Fluorescent Substrate System (Promega Corporation), the ALP activity was calculated, and from the calibration curve, the number of undifferentiated iPS cells having the ALP activity was calculated. In Table 11, the cell adhesion rate is expressed as a ratio calculated by regarding the number of pluripotent stem cells after the culture for 72 hours in a combination of RCP-11 and Essential 8 as being 100%. n=3.
In Table 11, “% by mass” in the concentration of 2-meracptoethanol is a proportion (w/v %) of mass (g) of 2-meracptoethanol per 100 mL of the total volume of the medium at the time of culture.

Test [5] deals with iPS cells. Briefly: Growth evaluation, number of cells after 3 days. In kind it is cell-based, human. To be noted: added amount 1.28 μg/cm^2; 5,000 cells/well; sample 1 (RCP-1) = 100%. As for the experimental part:
By adding RCP-1 to RCP-11 and Human Recombinant Laminin-511 as control at the concentration shown in Table 9, samples 1 to 12 were prepared. The samples were seeded into a 96-well plate, onto which each of the polypeptides was adsorbed in the same manner as in <Cell adhesiveness evaluation 1>, at a ratio of 5,000 cells/well and cultured for 3 days in a CO2 incubator at 37° C. The number of cells after 3 days was calculated in the same manner as in <Cell adhesiveness evaluation 1>. In Table 9, the number of cells after 3 days is expressed as a ratio calculated by regarding the number of cells obtained by using the sample 1 as being 100%.

“CCTDYTAECKPQVTRGDVFT (Peptide designed for comparative tests (Peptide-5))”: in test [1], the “adhesion of cells to the natural vitronectin on addition of peptide” value (“adhesion of cells” below) was “significantly hindered” and the “Cell adhesion rate (%)” value is 70.5 ± 7.1%.
For the substance “CCTDYTAECKPQVTRGEVFT (Peptide designed for comparative tests (Peptide-7))”, in test [1], the “adhesion of cells” value is given as “not hindered” and the “Cell adhesion rate (%)” value turned out to be 86.7 ± 7.1%.
For “DKKCQCDELCSYYQSCCTDY (Peptide designed for comparative tests (Peptide-4))”, in test [1], the “adhesion of cells” value is “significantly hindered” and the “Cell adhesion rate (%)” value is reported as 63.8 ± 11.6%.
Consider “DQESCKGRCTEGFNVDKKCQ (Peptide designed for comparative tests (Peptide-1))”, for which, in test [1], the “adhesion of cells” value was “not hindered” and the “Cell adhesion rate (%)” value is listed as 91.8 ± 1.2%.
The matching figures for “EGFNVDKKCQCDELCSYYQS (Peptide designed for comparative tests (Peptide-3))”: “not hindered” and 102.5 ± 4.2%.
Take “KGRCTEGFNVDKKCQCDELC (Peptide designed for comparative tests (Peptide-2))”: in test [1], the “adhesion of cells” value was “not hindered” and the “Cell adhesion rate (%)” value came out at 92.7 ± 19.6%.
As for “Laminin-511: recombinant laminin (Human Recombinant Laminin-511: BIOLAMINA AB)”, the “Cell adhesion rate (%)” value in test [2] (added amount 5.0 μg/cm^2) is on record as 142.0%. Further, the Cell growth rate is on record as 45.9% in test [3] (Essential8, 2-mercaptoethanol 0); 48.6% in test [3] (Essential8, 2-mercaptoethanol 10 μM (0.0000078% by mass)); 48.1% in test [3] (Essential8, 2-mercaptoethanol 10 μM (0.000078% by mass)); 44.6% in test [3] (Essential8, 2-mercaptoethanol 100 μM (0.00078% by mass)); 40.9% in test [3] (Essential8, 2-mercaptoethanol 1 mM (0.0078% by mass)); 39.3% in test [3] (Essential8, 2-mercaptoethanol 10 mM (0.078% by mass)). Further, the Cell growth rate in test [4] (medium Essential8, 2-mercaptoethanol 0) was determined as 45.9%; in test [4] (medium NutriStem, 2-mercaptoethanol 0) it was 98.8%; in test [4] (medium ReproFF2, 2-mercaptoethanol 102.4 μM (0.0008% by mass)) it was 93.9%; in test [4] (medium StemPro hESC SFM, 2-mercaptoethanol 100 μM (0.00078% by mass)), 103.7%; in test [4] (medium TeSR2, 2-mercaptoethanol 48.6 μM (0.00038% by mass)), 14.4%. The “dependence of cell growth properties on the concentration of 2-mercaptoethanol” value in test [3] (Table 12) is “such characteristics were not observed”. Further, the “cell growth properties with Essential 8 or NutriStem not containing 2-mercaptoethanol versus media containing it” value in test [4] (Table 11) is given as “a clear correlation could not be confirmed”. In addition, the “Number of cells after 3 days (%)” value in test [5] amounted to 56.8%.
In the case of “TAECKPQVTRGDVFTMPEDE (Peptide designed for comparative tests (Peptide-6))”, in test [1], the “adhesion of cells” value is recorded as “significantly hindered” and the “Cell adhesion rate (%)” value is given as 52.7 ± 10.3%.
In the case of “TAECKPQVTRGEVFTMPEDE (Peptide designed for comparative tests (Peptide-8))”, in test [1], the “adhesion of cells” value is “not hindered” and the “Cell adhesion rate (%)” value stood at 83.8 ± 14.8%.
On to “rLaminin-5: recombinant laminin (rLaminin-5: Oriental Yeast Co., ltd.)”, for which the “Cell adhesion rate (%)” value in test [2] (added amount 3.2 μg/cm^2) is 155.7%.

(Values after patent US10487307B2, “Culture method for pluripotent stem cells” (FUJIFILM CORPORATION, priority 2013, dated 2019).)
